Test results published in patent US11739101B2, “Bifunctional degraders of hematopoietic progenitor kinase and therapeutic uses thereof” (Nurix Therapeutics, Inc., priority 2020, dated 2023).

These molecules were tested against T1, HPK1 (Homo sapiens, UniProt Q92918) (assay: HPK1 Cellular HiBiT Degradation Assay). Details: HiBiT-tagged HPK1 Jurkat cells, 24 hours, 10 uM to 0.1 nM; Dmax = 100 minus lowest % HPK1 remaining vs DMSO vehicle.
T1 construct: A HiBiT tag was introduced by CRISPR on the N terminus of HPK1 in Jurkat cells; host or cells: Jurkat (ATCC TIB-152), monoclonal CRISPR HiBiT knock-in line
T1 sequence (Q92918 whole entry): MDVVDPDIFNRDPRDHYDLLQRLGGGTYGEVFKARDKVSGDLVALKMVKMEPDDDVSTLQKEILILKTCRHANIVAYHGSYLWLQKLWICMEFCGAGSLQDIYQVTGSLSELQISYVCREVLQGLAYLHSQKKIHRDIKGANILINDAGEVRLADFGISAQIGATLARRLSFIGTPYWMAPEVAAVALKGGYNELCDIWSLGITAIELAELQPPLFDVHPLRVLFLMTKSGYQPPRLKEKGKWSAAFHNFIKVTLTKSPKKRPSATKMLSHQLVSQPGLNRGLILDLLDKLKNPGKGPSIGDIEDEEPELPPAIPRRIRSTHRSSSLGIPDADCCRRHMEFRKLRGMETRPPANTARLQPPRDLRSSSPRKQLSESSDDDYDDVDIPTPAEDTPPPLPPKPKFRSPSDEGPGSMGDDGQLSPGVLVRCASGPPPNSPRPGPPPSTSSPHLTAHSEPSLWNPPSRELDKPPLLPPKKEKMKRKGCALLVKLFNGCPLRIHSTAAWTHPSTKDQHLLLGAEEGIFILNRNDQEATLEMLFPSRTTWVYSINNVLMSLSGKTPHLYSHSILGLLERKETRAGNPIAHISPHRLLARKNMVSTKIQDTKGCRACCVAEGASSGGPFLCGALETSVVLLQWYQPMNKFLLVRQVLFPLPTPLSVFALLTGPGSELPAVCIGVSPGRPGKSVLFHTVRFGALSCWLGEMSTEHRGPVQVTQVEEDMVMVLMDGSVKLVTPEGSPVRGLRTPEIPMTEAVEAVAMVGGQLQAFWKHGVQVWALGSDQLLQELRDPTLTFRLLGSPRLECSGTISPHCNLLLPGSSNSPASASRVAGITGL
Format: cell-based
Procedure: HiBiT HPK1 Jurkat cell lines were used to evaluate the total protein levels of HPK1 in a robust human cellular high throughput format. The level of HPK1 remaining following treatment with HPK1 CTMs is reported as Dmax (maximum degradation) achieved at 24 hours when compared to vehicle treated controls. […] These decreases were not a result of cytotoxicity measured by a parallel viability assessment (CTG). See also Table 1.
A HiBiT tag was introduced by CRISPR on the N terminus of HPK1 in Jurkat cells (ATCC® TIB-152) to allow quantitation of HPK1 protein levels in a monoclonal human cell line. Cells were plated at 1×10^6 cells/mL, 30 uL/well (3×10^4 cells/well) in complete RPMI 1640 (10% heat inactivated FBS, 1% L-glutamine) in 384-well assay plates (Corning, cat. no. 3570). HPK1 chimeric targeting molecules (CTMs) were added in an 11-point dilution series (3.16-fold) with a final assay concentration range of 10 uM to 0.1 nM. The parental Jurkat cell line, with no HiBiT insertion, was included in the assay as a background control. Cells treated with a DMSO vehicle control were used to determine the maximum signal defining 100% HPK1 in the cell. Cells were incubated for 24 hours at 37° C./5% CO2. Following incubation, 30 uL of complete Nano-Glo HiBiT Lytic Detection Reagent (Promega cat. no. N3040) was added. Cells were incubated for 10 minutes at room temperature and luminescence was read on an EnVision plate reader (Perkin Elmer, 0.1 sec per well). Parallel plates were assessed for viability using Cell Titer Glo (Promega) and read on an EnVision plate reader to ensure results were not the effect of cytotoxicity. Percent HPK1 remaining per sample was calculated as follows: […]
% HPK1 remaining values were plotted as a function of compound concentration and curves were fit using the Prism (GraphPad) equation “log(inhibitor) vs response−Variable slope (four parameters)”. Dmax values were calculated by identifying the lowest % remaining and subtracting from 100. Dmax values are provided in Table 1, wherein A>65%, 45%≤B≤65% and C<45%.

Row | Structure (SMILES) | Dmax [%]
1 | Cc1cc(F)c(Nc2nc(-c3ccc4c(c3)N([C@H]3C[C@@H](N5CCCCC5)C3)C(=O)C43CCN(C(=O)[C@H]4CC[C@@H](C(=O)N5CCC(Oc6cccc7c6C(=O)N(C6CCC(=O)NC6=O)C7=O)CC5)CC4)CC3)cc3ncn(C(C)C)c23)cc1C(=O)NC(C)C (stereo partly drawn) [Example 96, 4-fluoro-N-isopropyl-5-[(3-isopropyl-6-{2-oxo-1-[(1s,3s)-3-(piperidin-1-yl)cyclobutyl]-1′-[(1s,4s)-4-[4-({2-[(3S)-2,6-dioxopiperidin-3-yl]-1,3-dioxoisoindol-4-yl}oxy)piperidine-1-carbonyl]cyclohexanecarbonyl]spiro[indole-3,4′-piperidin]-6-yl}imidazo[4,5-c]pyridin-4-yl)amino]-2-methylbenzamide] | 45 to 65
2 | Cc1cc(F)c(Nc2nc(-c3ccc4c(c3)N([C@H]3C[C@@H](N5CCCCC5)C3)C(=O)C43CCN(C(=O)C4CCN(C(=O)[C@H]5CC[C@@H](Nc6cccc7c6C(=O)N(C6CCC(=O)NC6=O)C7=O)CC5)C4)CC3)cc3ncn(C(C)C)c23)cc1C(=O)NC(C)C (stereo partly drawn) [Example 27, 4-fluoro-2-methyl-5-[(6-{2-oxo-1-[(1s,3s)-3-(piperidin-1-yl)cyclobutyl]-1′-[1-[(1S,4S)-4-({2-[2,6-dioxopiperidin-3-yl]-1,3-dioxo-2,3-dihydro-1H-isoindol-4-yl}amino)cyclohexanecarbonyl]pyrrolidine-3-carbonyl]-1,2-dihydrospiro[indole-3,4′-piperidin]-6-yl}-3-(propan-2-yl)-3H-imidazo[4,5-c]pyridin-4-yl)amino]-N-(propan-2-yl)benzamide] | < 45
3 | Cc1cc(F)c(Nc2nc(-c3ccc4c(c3)N([C@H]3C[C@@H](N5CCCCC5)C3)C(=O)C43CCN(C(=O)C4CCN(C(=O)CC5CCN(c6cccc7c6C(=O)N(C6CCC(=O)NC6=O)C7=O)CC5)CC4)CC3)cc3ncn(C(C)C)c23)cc1C(=O)NC(C)C (stereo partly drawn) [Example 36, 5-{[6-(1′-{1-[2-(1-{2-[2,6-dioxopiperidin-3-yl]-1,3-dioxo-2,3-dihydro-1H-isoindol-4-yl}piperidin-4-yl)acetyl]piperidine-4-carbonyl}-2-oxo-1-[(1s,3s)-3-(piperidin-1-yl)cyclobutyl]-1,2-dihydrospiro[indole-3,4′-piperidin]-6-yl)-3-(propan-2-yl)-3H-imidazo[4,5-c]pyridin-4-yl]amino}-4-fluoro-2-methyl-N-(propan-2-yl)benzamide] | < 45
4 | Cc1cc(F)c(Nc2nc(-c3ccc4c(c3)N([C@H]3C[C@@H](N5CCCCC5)C3)C(=O)C43CCN(C(=O)CCCCCCCNc4ccc5c(c4)C(=O)N(C4CCC(=O)NC4=O)C5=O)CC3)cc3ncn(C(C)C)c23)cc1C(=O)NC(C)C (stereo partly drawn) [Example 3, 5-((6-(1′-(8-((2-(2,6-dioxopiperidin-3-yl)-1,3-dioxoisoindolin-5-yl)amino)octanoyl)-2-oxo-1-((1s,3s)-3-(piperidin-1-yl)cyclobutyl)spiro[indoline-3,4′-piperidin]-6-yl)-3-isopropyl-3H-imidazo[4,5-c]pyridin-4-yl)amino)-4-fluoro-N-isopropyl-2-methylbenzamide] | < 45
5 | Cc1cc(F)c(Nc2nc(-c3ccc4c(c3)N([C@H]3C[C@@H](N5CCCCC5)C3)C(=O)C43CCN(C(=O)CCCCCCCCCNc4cccc5c4C(=O)N(C4CCC(=O)NC4=O)C5=O)CC3)cc3ncn(C(C)C)c23)cc1C(=O)NC(C)C (stereo partly drawn) [Example 1, 5-((6-(1′-(10-((2-(2,6-dioxopiperidin-3-yl)-1,3-dioxoisoindolin-4-yl)amino)decanoyl)-2-oxo-1-((1s,3s)-3-(piperidin-1-yl)cyclobutyl)spiro[indoline-3,4′-piperidin]-6-yl)-3-isopropyl-3H-imidazo[4,5-c]pyridin-4-yl)amino)-4-fluoro-N-isopropyl-2-methylbenzamide] | < 45
6 | Cc1cc(F)c(Nc2nc(-c3ccc4c(c3)N([C@H]3C[C@@H](N5CCCCC5)C3)C(=O)C43CCN(C(=O)CCOCCOCCOCCOCCOCCNc4cccc5c4C(=O)N(C4CCC(=O)NC4=O)C5=O)CC3)cc3ncn(C(C)C)c23)cc1C(=O)NC(C)C (stereo partly drawn) [Example 12, 5-((6-(1′-(1-((2-(2,6-dioxopiperidin-3-yl)-1,3-dioxoisoindolin-4-yl)amino)-3,6,9,12,15-pentaoxaoctadecan-18-oyl)-2-oxo-1-((1s,3s)-3-(piperidin-1-yl)cyclobutyl)spiro[indoline-3,4′-piperidin]-6-yl)-3-isopropyl-3H-imidazo[4,5-c]pyridin-4-yl)amino)-4-fluoro-N-isopropyl-2-methylbenzamide] | 45 to 65

The remaining lines, values ahead:

Row | Dmax [%] | Structure (SMILES)
7 | 45 to 65 | Cc1cc(F)c(Nc2nc(-c3ccc4c(c3)N([C@H]3C[C@@H](N5CCCCC5)C3)C(=O)C43CCN(C(=O)c4cnn(C[C@H]5CC[C@H](Nc6cccc7c6C(=O)N(C6CCC(=O)NC6=O)C7=O)CC5)c4)CC3)cc3ncn(C(C)C)c23)cc1C(=O)NC(C)C (stereo partly drawn) [Example 70, 4-fluoro-2-methyl-5-({6-[2-oxo-1′-(1-{[(1R,4R)-4-({2-[2,6-dioxopiperidin-3-yl]-1,3-dioxo-2,3-dihydro-1H-isoindol-4-yl}amino)cyclohexyl]methyl}-1H-pyrazole-4-carbonyl)-1-[(1s,3s)-3-(piperidin-1-yl)cyclobutyl]-1,2-dihydrospiro[indole-3,4′-piperidin]-6-yl]-3-(propan-2-yl)-3H-imidazo[4,5-c]pyridin-4-yl}amino)-N-(propan-2-yl)benzamide]
8 | 45 to 65 | Cc1cc(F)c(Nc2nc(-c3ccc4c(c3)N([C@H]3C[C@@H](N5CCCCC5)C3)C(=O)C43CCN(C(=O)c4ccc(CC5CCN(c6cccc7c6C(=O)N(C6CCC(=O)NC6=O)C7=O)CC5)cc4)CC3)cc3ncn(C(C)C)c23)cc1C(=O)NC(C)C (stereo partly drawn) [Example 59, 5-[(6-{1′-[4-({1-[2-(2,6-dioxopiperidin-3-yl)-1,3-dioxo-2,3-dihydro-1H-isoindol-4-yl]piperidin-4-yl}Methyl)benzoyl]-2-oxo-1-[(1s,3s)-3-(piperidin-1-yl)cyclobutyl]-1,2-dihydrospiro[indole-3,4′-piperidin]-6-yl}-3-(propan-2-yl)-3H-imidazo[4,5-c]pyridin-4-yl)amino]-4-fluoro-2-methyl-N-(propan-2-yl)benzamide]
9 | 45 to 65 | Cc1cc(F)c(Nc2nc(-c3ccc4c(c3)N([C@H]3C[C@@H](N5CCCCC5)C3)C(=O)C43CCN(C(=O)C4CCN(C(=O)CN5CC6(CCN(c7ccc8c(c7)C(=O)N(C7CCC(=O)NC7=O)C8=O)CC6)C5)CC4)CC3)cc3ncn(C(C)C)c23)cc1C(=O)NC(C)C (stereo partly drawn) [Example 42, 5-{[6-(1′-{1-[2-(7-{2-[2,6-dioxopiperidin-3-yl]-1,3-dioxo-2,3-dihydro-1H-isoindol-5-yl}-2,7-diazaspiro[3.5]nonan-2-yl)acetyl]piperidine-4-carbonyl}-2-oxo-1-[(1s,3s)-3-(piperidin-1-yl)cyclobutyl]-1,2-dihydrospiro[indole-3,4′-piperidin]-6-yl)-3-(propan-2-yl)-3H-imidazo[4,5-c]pyridin-4-yl]amino}-4-fluoro-2-methyl-N-(propan-2-yl)benzamide]
10 | 45 to 65 | Cc1cc(F)c(Nc2nc(-c3ccc4c(c3)N([C@H]3C[C@@H](N5CCCCC5)C3)C(=O)C43CCN(C(=O)C4CCN(C(=O)C5CCN(c6ccc7c(c6)C(=O)N(C6CCC(=O)NC6=O)C7=O)CC5)C4)CC3)cc3ncn(C(C)C)c23)cc1C(=O)NC(C)C (stereo partly drawn) [Example 40]
11 | 45 to 65 | Cc1cc(F)c(Nc2nc(-c3ccc4c(c3)N([C@H]3C[C@@H](N5CCCCC5)C3)C(=O)C43CCN(C(=O)C4(C)CCN(C(=O)C5CCN(c6ccc7c(c6)C(=O)N(C6CCC(=O)NC6=O)C7=O)CC5)CC4)CC3)cc3ncn(C(C)C)c23)cc1C(=O)NC(C)C (stereo partly drawn) [Example 74, 5-[(6-{1′-[1-(1-{2-[2,6-dioxopiperidin-3-yl]-1,3-dioxoisoindol-5-yl}piperidine-4-carbonyl)-4-methylpiperidine-4-carbonyl]-2-oxo-1-[(1s,3s)-3-(piperidin-1-yl)cyclobutyl]spiro[indole-3,4′-piperidin]-6-yl}-3-isopropylimidazo[4,5-c]pyridin-4-yl)amino]-4-fluoro-N-isopropyl-2-methylbenzamide]
12 | > 65 | Cc1cc(F)c(Nc2nc(-c3ccc4c(c3)N([C@H]3C[C@@H](N5CCCCC5)C3)C(=O)C43CCN(C(=O)c4ccc(C(=O)N5CCN(c6ccc7c(c6)C(=O)N(C6CCC(=O)NC6=O)C7=O)CC5)cc4Cl)CC3)cc3ncn(C(C)C)c23)cc1C(=O)NC(C)C (stereo partly drawn) [Example 71, 5-[(6-{1′-[2-chloro-4-(4-{2-[2,6-dioxopiperidin-3-yl]-1,3-dioxo-2,3-dihydro-1H-isoindol-5-yl}piperazine-1-carbonyl)benzoyl]-2-oxo-1-[(1s,3s)-3-(piperidin-1-yl)cyclobutyl]-1,2-dihydrospiro[indole-3,4′-piperidin]-6-yl}-3-(propan-2-yl)-3H-imidazo[4,5-c]pyridin-4-yl)amino]-4-fluoro-2-methyl-N-(propan-2-yl)benzamide]
